Experimental data taken from PMC9037111, “Structure-based design, synthesis, and biological evaluation of novel piperine–resveratrol hybrids as antiproliferative agents targeting SIRT-2” (RSC Advances, 2021).

Experiments:
Test in all cases: cells
Parameters in all cases: species or system NCI-60 human tumour cell lines; NCI-60 one-dose screen at 10 uM, percent growth inhibition versus untreated control cells
ACHN = conditions: Homo sapiens, ACHN; growth inhibition, one dose; read-out: Growth% inhibition / 5e
BT-549 = conditions: Homo sapiens, BT-549; growth inhibition, one dose; read-out: Growth% inhibition / 5e
CAKI-1 = conditions: Homo sapiens, CAKI-1; growth inhibition, one dose; read-out: Growth% inhibition / 5e
CCRF-CEM = conditions: Homo sapiens, CCRF-CEM; growth inhibition, one dose; read-out: Growth% inhibition / 5e
EKVX = conditions: Homo sapiens, EKVX; growth inhibition, one dose; read-out: Growth% inhibition / 5e
HL-60(TB) = conditions: Homo sapiens, HL-60; growth inhibition, one dose; read-out: Growth% inhibition / 5e
M14 = conditions: Homo sapiens, M14; growth inhibition, one dose; read-out: Growth% inhibition / 5e
NCI-H460 = conditions: Homo sapiens, NCI-H460; growth inhibition, one dose; read-out: Growth% inhibition / 5e
OVCAR-4 = conditions: Homo sapiens, OVCAR-4; growth inhibition, one dose; read-out: Growth% inhibition / 5e
OVCAR-5 = conditions: Homo sapiens, OVCAR-5; growth inhibition, one dose; read-out: Growth% inhibition / 5e
SK-MEL-28 = conditions: Homo sapiens, SK-MEL-28; growth inhibition, one dose; read-out: Growth% inhibition / 5e
SNB-19 = conditions: Homo sapiens, SNB-19; growth inhibition, one dose; read-out: Growth% inhibition / 5e
SNB-75 = conditions: Homo sapiens, SNB-75; growth inhibition, one dose; read-out: Growth% inhibition / 5e
SR = conditions: Homo sapiens, SR; growth inhibition, one dose; read-out: Growth% inhibition / 5e
U251 = conditions: Homo sapiens, U-251; growth inhibition, one dose; read-out: Growth% inhibition / 5e
UACC-257 = conditions: Homo sapiens, UACC-257; growth inhibition, one dose; read-out: Growth% inhibition / 5e
UACC-62 = conditions: Homo sapiens, UACC-62; growth inhibition, one dose; read-out: Growth% inhibition / 5e
UO-31 = conditions: Homo sapiens, UO-31; growth inhibition, one dose; read-out: Growth% inhibition / 5e

`CCN(CC)c1ccc(/C=N/NC(=O)/C=C/C=C/c2ccc3c(c2)OCO3)c(O)c1` [5e, (2E,4E)-5-(Benzo[d][1,3]dioxol-5-yl)-N′-((E)-4-(diethylamino)-2-hydroxybenzylidene)penta-2,4-dienehydrazide] was tested, and the inhibition at 10 µM (ACHN) was 74.4%, the inhibition at 10 µM (BT-549) was 48.2% and the inhibition at 10 µM (CAKI-1) was 70.7%. The inhibition at 10 µM (CCRF-CEM) was 78.3%, the inhibition at 10 µM (EKVX) was 47.8% and the inhibition at 10 µM (HL-60(TB)) was 97.3%. For the same compound, the inhibition at 10 µM (M14) was 63.6%, the inhibition at 10 µM (NCI-H460) was 80.2% and the inhibition at 10 µM (OVCAR-4) was 84.7%. For the same compound, the inhibition at 10 µM (OVCAR-5) was 39.1%, the inhibition at 10 µM (SK-MEL-28) was 48% and the inhibition at 10 µM (SNB-19) was 39%. For the same compound, the inhibition at 10 µM (SNB-75) was 41.2%, the inhibition at 10 µM (SR) was 82.4% and the inhibition at 10 µM (U251) was 56.8%. It also gave an inhibition at 10 µM (UACC-257) of 75.8%, an inhibition at 10 µM (UACC-62) of 70.9% and an inhibition at 10 µM (UO-31) of 75%.
